Test results as given in ChEMBL document CHEMBL1201861, “Genomics of Drug Sensitity in Cancer screening data, Wellcome Trust Sanger Institute”.

Key:
Test in all cases: cells
Conditions in all cases: Homo sapiens
[1] = test system: CP66-MEL; type: functional, cell-based;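 also: growth inhibition of CP66-MEL cells determined in a cell viability assay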
Description: SANGER: Inhibition of human CP66-MEL cell growth in a cell viability assay.

[2] = test system: CTV-1; type: functional, cell-based;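 also: growth inhibition of the cell line, read out with a cell viability assay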
Description: SANGER: Inhibition of human CTV-1 cell growth in a cell viability assay.

[3] = test system: D-263MG; type: functional, cell-based
Description: SANGER: Inhibition of human D-263MG cell growth in a cell viability assay.

[4] = test system: DB; type: functional, cell-based
Description: SANGER: Inhibition of human DB cell growth in a cell viability assay.

[5] = test system: DU-4475; type: functional, cell-based
Description: SANGER: Inhibition of human DU-4475 cell growth in a cell viability assay.

[6] = test system: ES6; type: functional, cell-based;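 also: growth inhibition of human ES6 cells, read out with a cell viability assay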
Description: SANGER: Inhibition of human ES6 cell growth in a cell viability assay.

[7] = test system: EW-24; type: functional, cell-based;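 also: human EW-24 cancer cell line, growth inhibition read out via a cell viability assay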
Description: SANGER: Inhibition of human EW-24 cell growth in a cell viability assay.

[8] = test system: G-401; type: functional, cell-based
Description: SANGER: Inhibition of human G-401 cell growth in a cell viability assay.

[9] = test system: GCIY; type: functional, cell-based;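 also: growth inhibition of the human GCIY cell line, read out by a cell viability assay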
Description: SANGER: Inhibition of human GCIY cell growth in a cell viability assay.

[10] = test system: GI-ME-N; type: functional, cell-based;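 also: growth inhibition of human GI-ME-N cells, read out with a cell viability assay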
Description: SANGER: Inhibition of human GI-ME-N cell growth in a cell viability assay.

[11] = test system: HC-1; type: functional, cell-based;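 also: growth inhibition of HC-1 cells measured by a cell viability assay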
Description: SANGER: Inhibition of human HC-1 cell growth in a cell viability assay.

[12] = test system: HCC 2998; type: functional, cell-based;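 also: growth inhibition of human HCC2998 cells, measured with a cell viability read-out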
Description: SANGER: Inhibition of human HCC2998 cell growth in a cell viability assay.

[13] = test system: HO-1-N-1; type: functional, cell-based;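 also: growth inhibition of human HO-1-N-1 cells, read out with a cell viability assay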
Description: SANGER: Inhibition of human HO-1-N-1 cell growth in a cell viability assay.

[14] = test system: HuTu80; type: functional, cell-based, HUTU-80;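 also: growth inhibition of HuTu80 human cells, determined with a cell viability readout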
Description: SANGER: Inhibition of human HUTU-80 cell growth in a cell viability assay.

[15] = test system: IST-MEL1; type: functional, cell-based;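 also: growth inhibition of the cell line, read out with a cell viability assay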
Description: SANGER: Inhibition of human IST-MEL1 cell growth in a cell viability assay.

[16] = test system: IST-MES1; type: functional, cell-based;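 also: growth inhibition of IST-MES1 cells, measured with a cell viability assay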
Description: SANGER: Inhibition of human IST-MES1 cell growth in a cell viability assay.

[17] = test system: KE-37; type: functional, cell-based;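 also: growth inhibition of KE-37 cells, read out with a cell viability assay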
Description: SANGER: Inhibition of human KE-37 cell growth in a cell viability assay.

[18] = test system: KM-H2; type: functional, cell-based;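 also: growth inhibition of KM-H2 cells, read out by a cell viability assay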
Description: SANGER: Inhibition of human KM-H2 cell growth in a cell viability assay.

[19] = test system: KNS-81-FD; type: functional, cell-based;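 also: growth inhibition of KNS-81-FD cells, read out with a cell viability assay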
Description: SANGER: Inhibition of human KNS-81-FD cell growth in a cell viability assay.

[20] = test system: KURAMOCHI; type: functional, cell-based;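 also: growth inhibition of KURAMOCHI cells, read out with a cell viability assay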
Description: SANGER: Inhibition of human KURAMOCHI cell growth in a cell viability assay.

[21] = test system: LB373-MEL-D; type: functional, cell-based;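 also: growth inhibition of the cell line, read out in a cell viability assay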
Description: SANGER: Inhibition of human LB373-MEL-D cell growth in a cell viability assay.

[22] = test system: Lu-65; type: functional, cell-based;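 also: growth inhibition of Lu-65 cancer cells, read out by a cell viability assay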
Description: SANGER: Inhibition of human LU-65 cell growth in a cell viability assay.

[23] = test system: LXF-289 cell line; type: functional, cell-based
Description: SANGER: Inhibition of human LXF-289 cell growth in a cell viability assay.

[24] = test system: MEG-01; type: functional, cell-based;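 also: growth inhibition of MEG-01 cells, read out by a cell viability assay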
Description: SANGER: Inhibition of human MEG-01 cell growth in a cell viability assay.

[25] = test system: MMAC-SF; type: functional, cell-based;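 also: growth inhibition of human MMAC-SF cells, read out with a cell viability assay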
Description: SANGER: Inhibition of human MMAC-SF cell growth in a cell viability assay.

[26] = test system: MS-1; type: functional, cell-based;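 also: growth inhibition of MS-1 cells, read out by cell viability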
Description: SANGER: Inhibition of human MS-1 cell growth in a cell viability assay.

[27] = test system: MSTO-211H; type: functional, cell-based
Description: SANGER: Inhibition of human MSTO-211H cell growth in a cell viability assay.

[28] = test system: MV4-11; type: functional, cell-based, MV-4-11;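 also: cell viability readout measuring growth inhibition of human MV-4-11 cells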
Description: SANGER: Inhibition of human MV-4-11 cell growth in a cell viability assay.

[29] = test system: MZ7-mel; type: functional, cell-based;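 also: growth inhibition of human MZ7-mel cells, measured by a cell viability assay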
Description: SANGER: Inhibition of human MZ7-mel cell growth in a cell viability assay.

[30] = test system: Mo; type: functional, cell-based
Description: SANGER: Inhibition of human Mo-T cell growth in a cell viability assay.

[31] = test system: NB5; type: functional, cell-based;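 also: growth inhibition of NB5 cells, read out as cell viability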
Description: SANGER: Inhibition of human NB5 cell growth in a cell viability assay.

[32] = test system: NB6; type: functional, cell-based;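 also: growth inhibition of NB6 cells, read out by a cell viability assay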
Description: SANGER: Inhibition of human NB6 cell growth in a cell viability assay.

[33] = test system: NCI-H1395; type: functional, cell-based;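 also: cell viability assay read-out quantifying reduced proliferation of human NCI-H1395 cells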
Description: SANGER: Inhibition of human NCI-H1395 cell growth in a cell viability assay.

[34] = test system: NCI-H1650; type: functional, cell-based;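 also: growth inhibition of human NCI-H1650 cells measured by a cell viability assay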
Description: SANGER: Inhibition of human NCI-H1650 cell growth in a cell viability assay.

[35] = test system: NCI-H292; type: functional, cell-based;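 also: growth inhibition of NCI-H292 cells, read out with a cell viability assay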
Description: SANGER: Inhibition of human NCI-H292 cell growth in a cell viability assay.

[36] = test system: NCI-H358; type: functional, cell-based;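 also: growth inhibition of NCI-H358 human cells, read out with a cell viability assay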
Description: SANGER: Inhibition of human NCI-H358 cell growth in a cell viability assay.

[37] = test system: NCI-H526; type: functional, cell-based;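 also: growth inhibition of the human NCI-H526 cell line, measured by a cell viability assay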
Description: SANGER: Inhibition of human NCI-H526 cell growth in a cell viability assay.

[38] = test system: NCI-H720; type: functional, cell-based;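 also: growth inhibition of human NCI-H720 cells determined by a cell viability assay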
Description: SANGER: Inhibition of human NCI-H720 cell growth in a cell viability assay.

[39] = test system: NEC8; type: functional, cell-based;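 also: growth inhibition of human NEC8 cells, read out by a cell viability assay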
Description: SANGER: Inhibition of human NEC8 cell growth in a cell viability assay.

[40] = test system: NKM-1; type: functional, cell-based;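 also: growth inhibition of NKM-1 cells, read out with a cell viability assay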
Description: SANGER: Inhibition of human NKM-1 cell growth in a cell viability assay.

[41] = test system: PFSK-1; type: functional, cell-based;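 also: cell viability assay measuring how strongly compounds suppress growth of human PFSK-1 cells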
Description: SANGER: Inhibition of human PFSK-1 cell growth in a cell viability assay.

[42] = test system: RH-1; type: functional, cell-based;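 also: growth inhibition of human RH-1 cells, read out with a cell viability assay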
Description: SANGER: Inhibition of human RH-1 cell growth in a cell viability assay.

[43] = test system: RPMI-8866; type: functional, cell-based
Description: SANGER: Inhibition of human RPMI-8866 cell growth in a cell viability assay.

[44] = test system: RS4-11; type: functional, cell-based;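 also: growth inhibition of RS4-11 cells, read out by a cell viability assay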
Description: SANGER: Inhibition of human RS4-11 cell growth in a cell viability assay.

[45] = test system: SCC-15; type: functional, cell-based;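 also: growth inhibition of SCC-15 cells, read out with a cell viability assay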
Description: SANGER: Inhibition of human SCC-15 cell growth in a cell viability assay.

[46] = test system: SCC-9; type: functional, cell-based;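 also: Read-out is a cell viability assay, with values giving inhibition of cell growth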
Description: SANGER: Inhibition of human SCC-9 cell growth in a cell viability assay.

[47] = test system: SF-126; type: functional, cell-based;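 also: growth inhibition of human SF126 cells, read out with a cell viability assay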
Description: SANGER: Inhibition of human SF126 cell growth in a cell viability assay.

[48] = test system: SF-268; type: functional, cell-based;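 also: growth inhibition of SF-268 cells determined with a cell viability assay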
Description: SANGER: Inhibition of human SF268 cell growth in a cell viability assay.

[49] = test system: SK-N-FI; type: functional, cell-based;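 also: cell viability assay measuring growth inhibition of human SK-N-FI cells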
Description: SANGER: Inhibition of human SK-N-FI cell growth in a cell viability assay.

[50] = test system: SNB-75; type: functional, cell-based;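 also: cell viability assay measuring growth inhibition of human SNB-75 cells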
Description: SANGER: Inhibition of human SNB75 cell growth in a cell viability assay.

[51] = test system: SW780; type: functional, cell-based;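 also: growth inhibition of the cells, read out with a cell viability assay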
Description: SANGER: Inhibition of human SW780 cell growth in a cell viability assay.

[52] = test system: SW 962; type: functional, cell-based;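 also: growth inhibition of human SW962 cells, read out by a cell viability assay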
Description: SANGER: Inhibition of human SW962 cell growth in a cell viability assay.

[53] = test system: SiHa; type: functional, cell-based;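 also: Viability-based readout of growth inhibition in SiHa cells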
Description: SANGER: Inhibition of human SiHa cell growth in a cell viability assay.

[54] = test system: AM-38; type: functional, cell-based;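 also: growth inhibition of AM-38 cells of human origin, read out by a cell viability assay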
Description: SANGER: Inhibition of human AM-38 cell growth in a cell viability assay.

[55] = test system: ATN-1; type: functional, cell-based;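 also: growth inhibition of human ATN-1 cells, read out with a cell viability assay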
Description: SANGER: Inhibition of human ATN-1 cell growth in a cell viability assay.

[56] = test system: BE-13; type: functional, cell-based;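 also: growth inhibition of human BE-13 cells, measured with a cell viability assay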
Description: SANGER: Inhibition of human BE-13 cell growth in a cell viability assay.

[57] = test system: BT-474; type: functional, cell-based
Description: SANGER: Inhibition of human BT-474 cell growth in a cell viability assay.

[58] = test system: Becker; type: functional, cell-based;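 also: growth inhibition of Becker cells, read out with a cell viability assay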
Description: SANGER: Inhibition of human Becker cell growth in a cell viability assay.

[59] = test system: C2BBe1; type: functional, cell-based
Description: SANGER: Inhibition of human C2BBe1 cell growth in a cell viability assay.

[60] = test system: CAL-33; type: functional, cell-based
Description: SANGER: Inhibition of human CAL-33 cell growth in a cell viability assay.

[61] = test system: TE-12; type: functional, cell-based
Description: SANGER: Inhibition of human TE-12 cell growth in a cell viability assay.

[62] = test system: TGBC24TKB; type: functional, cell-based
Description: SANGER: Inhibition of human TGBC24TKB cell growth in a cell viability assay.

[63] = test system: VA-ES-BJ; type: functional, cell-based
Description: SANGER: Inhibition of human VA-ES-BJ cell growth in a cell viability assay.

[64] = test system: COLO-684; type: functional, cell-based
Description: SANGER: Inhibition of human COLO-684 cell growth in a cell viability assay.

In the case of `Cn1cc(/C=C2\C(=O)Nc3cccnc32)c2ccccc21`, the IC50 [1] is reported as > 2 µM, the IC50 [2] is reported as > 2 µM and the IC50 [3] is reported as > 2 µM. For the same compound, the IC50 [4] was > 2 µM, the IC50 [5] was > 2 µM and the IC50 [6] was > 2 µM. For the same compound, the IC50 [7] was > 2 µM, the IC50 [8] was > 2 µM and the IC50 [9] was > 2 µM. For the same compound, the IC50 [10] was > 2 µM, the IC50 [11] was > 2 µM and the IC50 [12] was > 2 µM. For the same compound, the IC50 [13] was > 2 µM, the IC50 [14] was > 2 µM and the IC50 [15] was > 2 µM. For the same compound, the IC50 [16] was > 2 µM, the IC50 [17] was > 2 µM and the IC50 [18] was > 2 µM. For the same compound, the IC50 [19] was > 2 µM, the IC50 [20] was > 2 µM and the IC50 [21] was > 2 µM. For the same compound, the IC50 [22] was > 2 µM, the IC50 [23] was > 2 µM and the IC50 [24] was > 2 µM. The IC50 [25] was > 2 µM, the IC50 [26] was > 2 µM and the IC50 [27] was > 2 µM. For the same compound, the IC50 [28] was 0.295 µM, the IC50 [29] was > 2 µM and the IC50 [30] was > 2 µM. The IC50 [31] was > 2 µM, the IC50 [32] was > 2 µM and the IC50 [33] was > 2 µM. The IC50 [34] was > 2 µM, the IC50 [35] was > 2 µM and the IC50 [36] was > 2 µM. For the same compound, the IC50 [37] was > 2 µM, the IC50 [38] was > 2 µM and the IC50 [39] was 1.23 µM. For the same compound, the IC50 [40] was > 2 µM, the IC50 [41] was > 2 µM and the IC50 [42] was > 2 µM. The IC50 [43] was > 2 µM, the IC50 [44] was > 2 µM and the IC50 [45] was > 2 µM. For the same compound, the IC50 [46] was > 2 µM, the IC50 [47] was > 2 µM and the IC50 [48] was > 2 µM. For the same compound, the IC50 [49] was > 2 µM, the IC50 [50] was > 2 µM and the IC50 [51] was > 2 µM. For the same compound, the IC50 [52] was > 2 µM, the IC50 [53] was > 2 µM and the IC50 [54] was > 2 µM. For the same compound, the IC50 [55] was > 2 µM, the IC50 [56] was > 2 µM and the IC50 [57] was > 2 µM. For the same compound, the IC50 [58] was > 2 µM, the IC50 [59] was > 2 µM and the IC50 [60] was > 2 µM. For the same compound, the IC50 [61] was > 2 µM, the IC50 [62] was > 2 µM and the IC50 [63] was > 2 µM. For the same compound, the IC50 [64] was > 2 µM.
With `COc1cc(Nc2c(C#N)cnc3cc(OCCCN4CCN(C)CC4)c(OC)cc23)c(Cl)cc1Cl` [BOSUTINIB] the IC50 [1] was > 2 µM, the IC50 [2] was 0.164 µM and the IC50 [3] was > 2 µM. For the same compound, the IC50 [4] was > 2 µM, the IC50 [5] was > 2 µM and the IC50 [6] was > 2 µM. The IC50 [7] was > 2 µM, the IC50 [8] was > 2 µM and the IC50 [9] was > 2 µM. The IC50 [10] was > 2 µM, the IC50 [11] was > 2 µM and the IC50 [12] was > 2 µM. The IC50 [13] was 1.26 µM, the IC50 [14] was > 2 µM and the IC50 [15] was > 2 µM. The IC50 [16] was > 2 µM, the IC50 [17] was 0.495 µM and the IC50 [18] was > 2 µM. For the same compound, the IC50 [19] was > 2 µM, the IC50 [20] was > 2 µM and the IC50 [21] was > 2 µM. The IC50 [22] was > 2 µM, the IC50 [23] was > 2 µM and the IC50 [24] was 0.512 µM. The IC50 [25] was > 2 µM, the IC50 [26] was > 2 µM and the IC50 [27] was > 2 µM. The IC50 [28] was 1.7 µM, the IC50 [29] was > 2 µM and the IC50 [30] was > 2 µM. For the same compound, the IC50 [31] was > 2 µM, the IC50 [32] was > 2 µM and the IC50 [33] was > 2 µM. For the same compound, the IC50 [34] was > 2 µM, the IC50 [35] was 0.441 µM and the IC50 [36] was > 2 µM. The IC50 [37] was 1.99 µM, the IC50 [38] was > 2 µM and the IC50 [39] was > 2 µM. The IC50 [40] was 1.72 µM, the IC50 [41] was > 2 µM and the IC50 [42] was > 2 µM. The IC50 [43] was 1.26 µM, the IC50 [44] was 0.486 µM and the IC50 [45] was 1.62 µM. For the same compound, the IC50 [46] was > 2 µM, the IC50 [47] was > 2 µM and the IC50 [48] was > 2 µM. The IC50 [49] was > 2 µM, the IC50 [50] was > 2 µM and the IC50 [51] was > 2 µM. For the same compound, the IC50 [52] was > 2 µM, the IC50 [53] was > 2 µM and the IC50 [54] was > 2 µM. For the same compound, the IC50 [55] was > 2 µM, the IC50 [56] was 0.486 µM and the IC50 [57] was > 2 µM. The IC50 [58] was > 2 µM, the IC50 [59] was > 2 µM and the IC50 [60] was 1.19 µM. The IC50 [61] was > 2 µM, the IC50 [62] was > 2 µM and the IC50 [63] was > 2 µM. For the same compound, the IC50 [64] was > 2 µM.
